# Reference: patent US20090176891A1, “DENTAL COMPOSITION AND METHOD OF USE” (priority 2007, published 2009)
# Like-named read-outs stand apart in the source and are kept apart here.
# Assays:
# [1] = system: common bacteria associated with failed root canal therapy; experiment: Drug efficacy: zones of inhibition on agar plates; assay type: cell-based
# Description: FIG. 6 is graph showing the antimicrobial efficacy of various dose strengths of CHX on bacterial growth on agar plates. The efficacy of the eluted amounts of CHX was tested to evaluate anti-microbial activity at various dose strengths compared to a positive control (Ampicillin). This pilot study was done to obtain a range of CHX elution amounts by weight required to kill common bacteria associated with failed root canal therapy.
# [2] = species not given; cited from earlier work
# [3] = system: RAT; details: cited from earlier work
smiles,measurement,setting,value
CC1(C)S[C@@H]2[C@H](NC(=O)[C@H](N)c3ccccc3)C(=O)N2[C@H]1C(=O)O [Ampicillin],zone of inhibition at 10000 µg/disc,"[1]; 10 mg, positive control",14.5 mm
"[H]/N=C(\N/C(=N/[H])NCCCCCCNC(=N)NC(=N)Nc1ccc(Cl)cc1)Nc1ccc(Cl)cc1 [CHX, chlorohexidine]",antimicrobial effect,"[1]; 4 μg, compared with water (negative control)",some antimicrobial effect can be seen
same,zones of inhibition compared with Ampicillin,[1]; 31 to 250 μg,equal to or better than that of Ampicillin
same,zone of inhibition at 0.5 µg/disc,[1]; dose 0.5 μg,0 mm
same,zone of inhibition at 1 µg/disc,[1]; dose 1 μg,0 mm
same,zone of inhibition at 2 µg/disc,[1]; dose 2 μg,0 mm
same,zone of inhibition at 4 µg/disc,[1]; dose 4 μg,7 mm
same,zone of inhibition at 7.8 µg/disc,[1]; dose 7.8 μg,9 mm
same,zone of inhibition at 15.6 µg/disc,[1]; dose 15.6 μg,12.3 mm
same,zone of inhibition at 31.25 µg/disc,[1]; dose 31.25 μg,14.3 mm
same,zone of inhibition at 62.5 µg/disc,[1]; dose 62.5 μg,16.7 mm
same,zone of inhibition at 125 µg/disc,[1]; dose 125 μg,16.3 mm
same,zone of inhibition at 250 µg/disc,[1]; dose 250 μg,17.3 mm
same,LD50,[2],2000 mg/kg
"CCOC(=O)c1ccc(N(C)C)cc1 [I3, Ethyl-4-N,N-dimethylaminobenzoate]",LD50,[3]; RAT,2000 mg/kg
"C=C(C)C(=O)OCCN(C)C [I4, N,N-Dimethylaminoethyl Methacrylate]",LD50,[3]; RAT ORAL,1751 mg/kg
"[Cl-].c1ccc([I+]c2ccccc2)cc1 [I5, Diphenyliodonium chloride]",LD50,[2],60 mg/kg
"C=C(C)C(=O)OCC(O)COc1ccc(C(C)(C)c2ccc(OCC(O)COC(=O)C(=C)C)cc2)cc1 (centres unmarked) [M3, 2,2-bis[p-(2-hydroxy-3-methacryloxypropoxy)phenyl]propane]",LD50,[3]; RAT,> 5000 mg/kg
"C=C(C)C(=O)OCCOCCOCCOC(=O)C(=C)C [M4, triethylene glycol dimethacrylate]",LD50,[2],10750 mg/kg
"C=C(C)C(=O)OCCO [M5, hydroxyl ethyl methacrylate]",LD50,[2],4680 mg/kg
